# Data as given in US20040072171A1, “Method for identifying compounds for modulating the activity of a tumor suppressor protein” (priority 2000, published 2004).
# Tests used:
# MEK = conditions: merlin-inducible schwannoma cells, inhibitor for 2 or 12 hours
# Description: Merlin-inducible schwannoma cells were plated onto 6-well plates at a density of 1.5×10^4 cells per well. 1 μg/ml doxycyclin was added where stated. After 16 hours, an MEK activation inhibitor (UO126; Promega) was added for 2 or 12 hours. 0 means no addition of inhibitor. The cells were harvested and solubilized in 2×Laemmli buffer, and the proteins were separated on a 10% SDS polyacrylamide gel. The proteins were transferred to a membrane, and an immune blot was carried out either with the polyclonal p27^Kip1 antibody C-19 from rabbit or with the Rb-specific antibody C-15 (Santa Cruz). The actin-specific antibody I-19 was used as loading control.
# p27^Kip1 = assay: Induction of p27Kip1 in NIH3T3 cells (immune blot); type: cell-based, murine; conditions: for level of cell division cycle inhibitor p27^Kip1: 30 minutes, hyaluronan 100 μg/ml or solCD44s 10 ng/ml
# Description: B. Induction of p27^Kip1 by treatment with hyaluronan. […] The next day, they were treated either with 100 μg/ml of hyaluronan or with 10 ng/ml solCD44s, and the plates were incubated for 30 minutes. The cells were harvested in 2×Laemmli sample buffer, and an immune blot with a polyclonal, p27^Kip1-specific antibody from rabbit was carried out (C-19, Santa Cruz). A polyclonal actin-antibody from goat (I-19, Santa Cruz) was used as loading control.
# RT4-D6P2T cells = assay: Growth in culture vessels of merlin-inducible schwannoma clone 54; type: cell-based, rat; conditions: for merlin-dependent growth inhibition in confluent cell cultures: merlin expression induced by doxycyclin
# Description: Growth in culture vessels: To determine the growth curves, each well of a 24-well plate was seeded with 5×10^3 cells (in FIG. 7: 2.5×10^3), and determinations in triplicate were carried out every 24 hours (days). Definition of the growth conditions:
# 1. Low cell density (=logarithmic or exponential growth) means a cell density of 500 cells per cm^2 24 hours after seeding.
# 2. high cell density (=confluent growth condition) is defined as a cell density of 5×10^3 cells per cm^2 24 hours after seeding.
# A. The soluble extracellular domain of CD44 sequestrates different ligands of exponentially growing and confluent cells. In each case 3 wells of a 24-well plate were seeded in triplicate with cells of clone 54, and the cells were treated with doxycyclin in order to induce the expression of merlin. On day 1 (logarithmically growing cells) and on day 3 (confluent cells), 10 ng/ml of soluble extracellular CD44 domain, either of the wild type (solCD44 or solCD44wt) or of the glycosaminoglycan-binding mutant (solCD44mut), were added. As the control, cells were treated in the same manner without doxycylin (since the addition of solCD44 was ineffective, only one group of data is shown).
# B. Hyaluronate delays growth. In each case 3 wells of a 24-well plate were seeded in triplicate with cells of clone 54. Doxycyclin and hyaluronate (100 μg/ml) were added as stated.
# Erk = assay: PDGF-dependent phosphorylation of Erk; type: cell-based, rat; conditions: clone 54, serum starvation, doxycyclin 8 hours, PDGF 5 ng/ml 5 minutes
# Description: The cells were used to seed 6-well plates at Low density and 24-well plates at high density, with or without 0.8% methylcellulose. The cells remained free from serum for 24 hours and were treated with doxycyclin or left untreated for the last 8 hours. Then, the cells were stimulated for 5 minutes with 5 ng/ml PDGF and subsequently harvested in 2×Laemmli sample buffer, and the cell extracts were separated on a 10% SDS polyacrylamide gel. After the proteins had been transferred to the membrane, immunoblots were prepared with a phospho-Erk-specific antibody, and the bound antibody was detected. As a control for uniform loading of the separating gel with Erk, the membrane was stripped (freed from antibody) and anti-Erk-blotted.
# C. […] Cells of clone 54 were plated at high or low cell density, left to grow for 24 hours with serum starvation and treated during the last 8 hours with doxycyclin (+) or left untreated (−). Where stated, the cells were treated for 2 hours with hyaluronidase (HAase, 5 U/μl), for 10 minutes with solCD44wt and/or for 5 minutes with PDGF (5ng/ml). The proteins of the lysates were separated by means of SDS-PAGE, and immune blots were carried out with phospho-Erk and Erk-specific antibodies. Clone 63 gave the same results as all the experiments in FIG. 6.
# C. […] Cells were grown at low cell density and subsequently treated with doxycyclin with serum starvation cells as shown in FIG. 6C and assayed for the PDGF-dependent phosphorylation of Erk. Where stated, HA (100 μg/ml) was present for 10 minutes and PDGF (5 ng/ml) was present for 5 minutes. Experiments A to C were also carried out with clone 63, and similar results were obtained.
# merlin = assay: Immune blot for dephosphorylation of merlin in clone 54 lysates; type: cell-based, rat; conditions: exponentially growing clone 54 cells, 8 hours doxycyclin
# Description: For the immunoprecipitation of merlin, the cells were grown to confluence in 10 cm dishes, washed once with ice-cold PBS and then placed on ice and lysed with 1 ml lysis buffer per plate (50 mM Tris pH 7.4, 150 mM NaCl, 3 mM MgCl2, 0.5% NP-40, 1 mM PMSF, 10 μg/aprotinin ml, 10 μg/ml leupeptin). The DNA was sheared using a gauge 26 needle. The lysate was clarified by centrifugation, and the supernatant was incubated with 5 μg/ml merlin antibody at 4° C. overnight with gentle rotation. The reaction was subsequently treated with 30 μl of protein A agarose (dianova) and left to rotate for a further 3 hours at 4° C. The immune complexes were washed 4 times with cold lysis buffer and separated in 50 μl 2×Laemmli sample buffer. The protein was dissolved in a 10% SDS-PAGE, and immunoblots were generated with a merlin-specific antibody. For the treatment with calf intestine phosphatase (CIP), the lysate was incubated for 1 hour at 30° C. with 1 unit CIP prior to the immunoprecipitation. The coimmunoprecipitation of merlin and CD44 was carried out analogously, except that a different lysis buffer was used (20 mM Tris pH 7.4, 50 mM NaCl, 3 mM MgCl2, 0.5% NP40). The lysates were preincubated for 2 hours with protein A/G-agarose (Dianova) to remove unspecifically binding components, whereupon 5 μg/ml CD44 antibody 5G8 was added and the reaction was allowed to rotate overnight. […]
# NIH3T3 cells = assay: Growth rate of NIH3T3 cells; type: cell-based, murine; conditions: 100 μg/ml, cell counts on the following 3 days
# Description: A. Growth rate of NIH3T3 cells after addition of hyaluronan. 24-well plates were seeded in triplicate with NIH3T3 cells at a density of 0.5×10^4 cells. Where stated, the culture medium was treated the next day with 100 μg/ml hyaluranon (Healon). The cell counts were determined on each of the following 3 days.
Compound,hypophosphorylated Rb (MEK),level of p27^Kip1 (MEK),level of cell division cycle inhibitor p27^Kip1 (p27^Kip1),induction of p21 and p27 (p27^Kip1; hyaluronate-induced activation of merlin),"growth of clone 54 cells (RT4-D6P2T cells; hyaluronate 100 μg/ml, with doxycyclin)",PDGF-dependent phosphorylation of Erk / activation of merlin (Erk),phosphorylation state of merlin (merlin),growth rate of NIH3T3 cells (NIH3T3 cells),merlin-dependent growth inhibition in confluent cell cultures (RT4-D6P2T cells),"effect on growth of cells without doxycyclin (RT4-D6P2T cells; control cells without doxycyclin, 10 ng/ml)","growth of cultures in the logarithmic growth phase (RT4-D6P2T cells; logarithmically growing cells, merlin induced by doxycyclin, soluble CD44 10 ng/ml)"
N#CC(=C(/N)Sc1ccccc1N)/C(C#N)=C(/N)Sc1ccccc1N [UO126],increase,higher level,,,,,,,,,
hyaluronate,,,increased,induction of p21 and p27,delays growth,blocks the PDGF-dependent phosphorylation of Erk,Induced dephosphorylation of merlin,reduced their growth rate,,,
hyaluronidase,,,,,,destroys the ligand responsible for the activation of merlin,,,prevents the inhibition of growth,,
solCD44wt: soluble extracellular CD44 domain of the wild type,,,increased,,,nullifies blocking of the activation of merlin,Induced dephosphorylation of merlin,,growth inhibition is nullified,ineffective,growth inhibition is observed
